Consider two compounds from ChEMBL document CHEMBL1155444, “(Bis)urea and (bis)thiourea inhibitors of lysine-specific demethylase 1 as epigenetic modulators” (J Med Chem, 2010).

The source made the active and inactive calls. The rule behind the calls is not given here.

Holding throughout (format): cell-based
Conditions in all cases: HCT-116

The target in test [1] is Lysine-specific histone demethylase 1A (Homo sapiens) (UniProt O60341). As to the kind of experiment: Inhibition of LSD1 in human HCT116 cells assessed as increase in cellular histone 3 dimethyllysine 4 level treated at increasing concentration after 48 hrs.
The target is the same in test [2]. As to the kind of experiment: Inhibition of LSD1 in human HCT116 cells assessed as increase in cellular histone 3 methyllysine 4 level treated at increasing concentration after 48 hrs.
The target is the same in test [3]. As to the kind of experiment: Inhibition of LSD1 in human HCT116 cells assessed as increase in cellular histone 3 dimethyllysine 9 level treated at increasing concentration after 48 hrs.

Turning to `C/N=C(\NC)NCCCNCCCNCCCN/C(=N/C)NC`, the inhibition entry in test [1] and in test [2] was “Active” throughout. For the same compound, the inhibition entry in test [3] was “inactive”.
Regarding `N=C(NCCCNCCCCCCCNCCCNC(=N)NC(=N)NCCC(c1ccccc1)c1ccccc1)NC(=N)NCCC(c1ccccc1)c1ccccc1`, the inhibition entry in test [1] and in test [2] was “Active” throughout. Further, the inhibition result in test [3] is “inactive”.
